Experimental data reported in article PMC12817916, “A small-molecule HSP90 inhibitor, NVP-HSP990, alleviates rotavirus infection” (Journal of Virology, 2025).

Assays:
RV (Wa or SA11 strains) = assay: RV replication in Caco-2 cells at varying MOI and timing of drug addition (PFA); format: cell-based, Rotavirus
Protocol: Rhesus monkey embryo kidney cell line MA104 cells (ATCC: CRL-2378.1) were provided by Dr. Elschner (Friedrich-Loeffler-Institute). Human intestinal epithelial cell lines Caco-2 cells (ATCC: HTB-37) and HT-29 cells (ATCC: HTB-38) were from ATCC and kept in our institute. All the cells were cultured in complete DMEM (Dulbecco’s modified Eagle medium [Gibco, USA] plus 10% [vol/vol] fetal bovine serum [FBS] [Gibco, USA] and 1% penicillin/streptomycin [Gibco, USA]) at 37°C with 5% CO2. RV Wa (G1P[8]) and SA11 (G3P[2]) strains were gifted by Professor Duan Zhaojun from the China Center for Disease Control and Prevention (Beijing, China) and propagated in MA104 cells. RV EDIM strain G16P[16] was gifted by Professor Wan Jianwei in Christophe Merieux Laboratory (Beijing) and propagated in BALB/c suckling mice. For RV infection in vitro, the viruses were diluted in DMEM, activated with 10 µg/mL trypsin (Gibco, USA) for 30 min at 37°C, and then added to target cells previously washed once with DMEM. After 1 h of incubation at 37°C, the inoculum was removed; the cells were then washed twice with DMEM (without FBS) and incubated with DMEM (without FBS) at 37°C, which was denoted as 0 h post-infection (h p.i.). HSP90 inhibitors (NVP-HSP990, GA, and 17-AAG) and Ribavirin (Selleck, USA) were dissolved in DMSO (Sigma, USA). The drugs were administered with indicated concentrations at 0 h p.i. in vitro unless otherwise stated, or orally administered in 10 µL volume using a pipette tip with the indicated quantity plus 90% (vol/vol) corn oil.
(A) Caco-2 cells were infected with RV (Wa or SA11 strains) at varying MOIs (0.001–10), followed by treatment with 100 nM NVP-HSP990 or an equal volume of DMSO (as a control) for 24 h. Viral replication was assessed using PFA. (B) Schematic diagram illustrating the timing of NVP-HSP990 addition and removal. (C) Caco-2 cells were infected with RV (MOI = 1) and treated with 100 nM NVP-HSP990 or with DMSO as control at indicated infection periods as shown in panel B. Viral replication was tested with PFA at 20 h p.i. (D) Caco-2 cells were infected with RV (MOI = 1) and treated with 100 nM HSP990 at 0, 4, 8, 12 h p.i. or treated with DMSO at 0 h p.i. Virus replication was tested with PFA at 24 h p.i. (E) Caco-2 cells were infected with RV (MOI = 1) and further cultivated with DMEM containing 100 nM NVP-HSP990 or DMSO as control for 18 h. Then the infected cells were harvested for qPCR analysis of the expression of RV genes encoding the VP2, VP6, NSP4, and NSP5 proteins. (F) Caco-2 cells were mock-infected with PBS or infected with RV (MOI = 1) and further cultivated with DMEM containing 100 nM NVP-HSP990 or DMSO as control for 18 h. Then the cells were harvested for WB analysis of RV structural proteins VP6 and VP7. […]

Caco-2 cells = assay: Cytotoxicity assay (CCK-8); format: cell-based, Human; conditions: Caco-2 cells, 24 h, CCK-8; read-out: CC50
Protocol: (§1) To evaluate the cytotoxicity of different HSP90 inhibitors in vitro, 10,000 MA104 cells, 30,000 Caco-2 cells, and 80,000 HT-29 cells in 100 µL complete DMEM medium were seeded in 96-well plates and cultured at 37°C and 5% CO2 for 24 h to reach about 100% confluence, and a cell-free control was also set. After removing the initial medium, 100 µL of complete DMEM medium containing the indicated concentrations of drugs was added to each well, and the plates were incubated at 37°C and 5% CO2. Twenty-four hours later, the drug-containing medium was replaced with 100 µL fresh complete DMEM medium plus 10 µL 5 mM CCK-8 reagent (Beyotime, China), and OD450 absorbance of each well was detected 3 h later using a microplate reader (Gene Company Limited, China). Relative cell viability rate = OD450 (drug-treated cells − cell-free control) / OD450 (0 µM drug-treated cells − cell-free control).
(§2) The 50% cytotoxic concentration (CC50) values were determined by nonlinear regression (curve fit) analysis in GraphPad Prism 9.0 (GraphPad Software). Dose-response data (drug concentrations as X-axis and normalized cell viability percentages as Y-axis) were fitted to a Dose-response Inhibition model ("[Inhibitor] vs. normalized response-Variable slope"). The curve was constrained to a bottom limit of 0% viability. The CC50 value was automatically calculated as the X-intercept at Y=50%. Model adequacy was validated using goodness-of-fit metrics (R²≥0.95), 95% confidence intervals, and residual distribution analysis. Final CC50 values were derived from three independent biological replicates and reported as mean ± SEM.

HT-29 cells = assay: Cytotoxicity assay (CCK-8); format: cell-based, Human; conditions: HT-29 cells, 24 h, CCK-8; read-out: CC50
Protocol: as §1, §2

MA104 cells = assay: Cytotoxicity assay (CCK-8); format: cell-based, Rhesus monkey; conditions: MA104 cells, 24 h, CCK-8; read-out: CC50
Protocol: as §1, §2

SMILES: COc1cccc(-c2cc(F)ccc2[C@H]2Cc3nc(N)nc(C)c3C(=O)N2)n1 [NVP-HSP990]
- inhibitory effect on RV replication (RV (Wa or SA11 strains); 100 nM, administered after RV infection (0 ~ 20 h p.i.), PFA at 20 h p.i.): ~100 fold
- reduction of final level of RV replication (RV (Wa or SA11 strains); 100 nM, administered during RV infection (−1 ~ 0 h p.i.), PFA at 20 h p.i.): ~ 1 fold
- inhibition of RV replication across MOIs (RV (Wa or SA11 strains); Wa or SA11, MOI 0.001 to 10, 100 nM, 24 h p.i., PFA): Robust inhibition
- establishment of RV infection or subsequent viral replication (RV (Wa or SA11 strains); pre-treatment prior to RV infection (−2 ~ −1 h p.i.)): did not significantly interfere
- CC50 (Caco-2 cells): > 100 µM
- CC50 (HT-29 cells): > 100 µM
- CC50 (MA104 cells): > 100 µM
